Assay results from PMC12673918, “Design, Synthesis, and Selective Antiproliferative Activity of Indolizine Derivatives as Microtubule Destabilizers” (Archiv Der Pharmazie, 2025).
Like-named read-outs stand apart in the source and are kept apart here.

Assays:
BT‐20 (breast carcinoma) = assay: Resazurin cell viability assay, BT‐20; type: cell-based; conditions: Homo sapiens, BT-20
Experimental: (§1) The tongue squamous cell carcinoma cell line CAL‐27 (ATCC CRL‐2095), breast carcinoma BT‐20 (ATCC HTB‐19), gastric carcinoma HGC‐27 (BCRJ Code 0310), and normal oral fibroblast OHMF (culture of fibroblasts derived from human oral healthy mucosa, approved by the Research Ethics Committee of the University of São Paulo, Campus of Ribeirão Preto, Brazil (with protocol number 049) were cultured in DMEM medium (DMEM, Sigma‐Aldrich, St. Louis, MO, USA) supplemented with 10% fetal bovine serum and a solution of penicillin (100 U/mL) and streptomycin (100 μg/mL). The cultures were maintained in a humidified incubator with 5% CO₂ at 37°C.
(§2) Cell viability was analyzed using the resazurin assay. For this, cells were seeded in 96‐well plates (1 × 10^3 cells per well) and incubated at 37°C with 5% CO₂ overnight for cell adhesion. Subsequently, the cells were treated with different compounds (0–50 µM) for 72 h. After treatment, the medium was replaced with phenol‐free DMEM medium (Sigma‐Aldrich) containing resazurin at a concentration of 44 µM (Sigma‐Aldrich). After incubation for 4 h at 37°C, fluorescence detection was performed (excitation 530/25 nm, emission 590/35 nm) using a microplate fluorimeter (Synergy 2, Biotek). Initial cell growth inhibition assays were performed in triplicate or quadruplicate, while IC50 determinations were conducted in triplicate. Data were plotted, and IC₅₀ values were determined by nonlinear regression using GraphPad Prism software 9.0.
(§3) ^a Cell viability was assessed using the resazurin assay after 72 hours of compound treatment. Fluorescence was measured to estimate % of cellular growth inhibition at 50 µM values, based on triplicate experiments.
(§4) ^b IC50 values were determined using the same resazurin-based assay, with fluorescence measurements performed after 72 hours of treatment. These experiments were carried out in triplicate.

tubulin [1] = assay: Tubulin polymerization (inhibition) assay kit; type: biochemical; conditions: for IC50: n = 2
Experimental: To evaluate the effect of the compounds on tubulin polymerization, the Tubulin Polymerization Assay Kit (Cytoskeleton Inc.) was used according to the manufacturer's instructions. Briefly, 5 µL of the compounds (final concentration ranging from 0.1 to 100 µM) were pipetted per well into a pre‐warmed 96‐well black‐bottom plate at 37°C. After 1 min, 55 µL of the tubulin reaction mix (1X Buffer 1, 0.7X Tubulin Glycerol Buffer, 1 mM GTP, and 2 mg/mL tubulin) was added to each well. Next, after 5 s of shaking, fluorescence detection (excitation: 340–360 nm, emission: 410–460 nm) was performed using a microplate fluorimeter. […] Data were plotted, and IC₅₀ values were determined by nonlinear regression using GraphPad Prism software 9.0.
^c Tubulin polymerization was evaluated using a commercial assay kit, following standard procedures. Compounds were incubated with tubulin, and fluorescence was measured over time to generate kinetic curves and determine the maximum polymerization rate (Vmax). These experiments were carried out in duplicate.

CAL‐27 (oral carcinoma) = assay: Resazurin cell viability assay, CAL‐27; type: cell-based; conditions: Homo sapiens, CAL-27
Experimental: as §1, §2, §3, §4

[2] = tested on: HGC‐27 (gastric carcinoma); assay: Resazurin cell viability assay, HGC‐27; type: cell-based; conditions: Homo sapiens, HGC-27
Experimental: as §1, §2, §3, §4

tubulin [3] = tested on: tubulin; parameters: method as in PMID 37895970; conditions: read-out: IC50 for tubulin destabilization (literature); cited from earlier work
[4] = tested on: OHMF (non‐tumoral oral fibroblast); assay: Resazurin cell viability assay, OHMF fibroblasts; type: cell-based; conditions: Homo sapiens, 72 h, n = 3
Experimental: as §1, §2

[5] = tested on: BT‐20 breast cancer cells; assay: Cell‐cycle assay by flow cytometry; type: cell-based; conditions: 2.5 µM, 24 h
Experimental: BT‐20 cells were seeded in 10 cm plates (1.5 × 10⁶ cells/plate) and incubated at 37°C with 5% CO₂ for 24 h. Subsequently, the cells were treated with different compounds at a concentration of 2.5 µM for 24 h. After treatment, the cells were collected by centrifugation and fixed in cold 70% ethanol for 1 h at 4°C. The cells were then washed, collected by centrifugation, and treated with RNase A (100 μg/mL, Sigma‐Aldrich) for 30 min at 37°C, followed by staining with propidium iodide (50 μg/mL) for 15 min at 37°C. Finally, the percentages of cells in each phase of the cell cycle were determined using FACSCalibur flow cytometry (BD Biosciences—San Jose, CA, USA). Cell‐cycle distribution was analyzed using ModFit LT V3.3 software.

GNP15 = assay: Resazurin cellular growth inhibition, GNP15; type: cell-based; conditions: 72 hours, triplicate; read-out: IC50 (nM, Cellular growth inhibition) GNP15 (supplement)
Experimental: as §4

[6] = tested on: MKN‐45 (gastric carcinoma) cells; conditions: cited from earlier work
[7] = tested on: stomach carcinoma cell line (NUGC3); parameters: method as in PMID 15293996, PMID 23237054; conditions: cited from earlier work
[8] = 72 h, mean ± SD, n = 3, read-out: IC50 (nM) BT‐20
[9] = 72 hours, triplicate, read-out: IC50 (nM, Cellular growth inhibition) BT-20 (supplement)
[10] = 72 h, mean ± SD, n = 3, read-out: IC50 (nM) CAL‐27
[11] = 72 hours, triplicate, read-out: IC50 (nM, Cellular growth inhibition) CAL-27 (supplement)
[12] = 72 h, mean ± SD, n = 3, read-out: IC50 (nM) HGC‐27
[13] = 72 hours, triplicate, read-out: IC50 (nM, Cellular growth inhibition) HGC-27 (supplement)

Row | IC50 (BT‐20 (breast carcinoma); [8]) [nM] | IC50 (BT‐20 (breast carcinoma); [9]) [nM] | IC50 (tubulin [1]) [µM] | IC50 (CAL‐27 (oral carcinoma); [10]) [nM] | IC50 (CAL‐27 (oral carcinoma); [11]) [nM] | IC50 [2, 12] [nM] | IC50 [2, 13] [nM] | SMILES | growth inhibitory activity against NUGC3 [7] | other results
1 | 111 ± 28 | 105 ± 21 | 14.8 | 105 ± 21 | 475 ± 105 | 475 ± 105 | 111 ± 28 | COc1ccc2c(C(=O)c3cc(OC)c(OC)c(OC)c3)ccn2c1 [Compound 7f, (6‐methoxyindolizin‐1‐yl)(3,4,5‐trimethoxyphenyl)methanone] |  | IC50 [4]: > 50000 nM; cell‐cycle distribution [5]: significant accumulation of cells in the G2/M phase; IC50 (GNP15): > 50000 nM; inhibition at 50 µM (BT‐20 (breast carcinoma); 72 h, mean ± SD, n = 3, read-out: % Cellular growth inhibition (at 50 µM) BT‐20): 43 ± 0.8%; inhibition at 50 µM (CAL‐27 (oral carcinoma); 72 h, mean ± SD, n = 3, read-out: % Cellular growth inhibition (at 50 µM) CAL‐27): 58 ± 1.3%; IC50 ([6]; MKN‐45 gastric cancer cells): 80 nM; inhibition at 50 µM ([2]; 72 h, mean ± SD, n = 3, read-out: % Cellular growth inhibition (at 50 µM) HGC‐27): 43 ± 0.7%
2 | 4 ± 1.1 | 3 ± 0.6 |  | 2 ± 0.1 | 48 ± 16 | 5 ± 1.4 | 45 ± 7 | COc1ccc2c(C(=O)c3cc(OC)c(OC)c(OC)c3)c[nH]c2c1 [BPR0L075, reference compound] | demonstrated growth inhibitory activity | fold improvement in antiproliferative activity over combretastatin A‐4 ([6]; MKN‐45 cells): > 10 fold

The next lines start with the molecule.

Row | SMILES | IC50 (BT‐20 (breast carcinoma); [8]) [nM] | IC50 (BT‐20 (breast carcinoma); [9]) [nM] | IC50 (tubulin [1]) [µM] | IC50 (CAL‐27 (oral carcinoma); [10]) [nM] | IC50 (CAL‐27 (oral carcinoma); [11]) [nM] | IC50 [2, 12] [nM] | IC50 [2, 13] [nM] | growth inhibitory activity against NUGC3 [7] | other results
3 | CC(=O)O[C@H]1C(=O)[C@@]2(C)[C@H]([C@H](OC(=O)c3ccccc3)[C@]3(O)C[C@H](OC(=O)[C@H](O)[C@@H](NC(=O)c4ccccc4)c4ccccc4)C(C)=C1C3(C)C)[C@]1(OC(C)=O)CO[C@@H]1C[C@@H]2O [Paclitaxel, reference compound] | 45 ± 7 | 2 ± 0.1 | 8.2 | 3 ± 0.6 | 5 ± 1.4 | 48 ± 16 | 4 ± 1.1 |  | inhibition at 2 µM (BT‐20 (breast carcinoma); 2 μM, 72 h, mean ± SD, read-out: % Cellular growth inhibition BT‐20, positive control): 50 ± 1%; inhibition at 50 µM (BT‐20 (breast carcinoma); 72 hours, triplicate, read-out: % Cellular growth inhibition (at 50 µM) BT-20 (supplement)): 50 ± 1%; effect on tubulin polymerization curves (RFU) (tubulin [1]; compounds 5 µM, vs control and paclitaxel): promoted rapid and sustained polymerization; inhibition at 2 µM (CAL‐27 (oral carcinoma); 2 μM, 72 h, mean ± SD, read-out: % Cellular growth inhibition CAL‐27, positive control): 54 ± 1.2%; inhibition at 50 µM (CAL‐27 (oral carcinoma); 72 hours, triplicate, read-out: % Cellular growth inhibition (at 50 µM) CAL-27 (supplement)): 54 ± 1.2%; inhibition at 2 µM ([2]; 2 μM, 72 h, mean ± SD, read-out: % Cellular growth inhibition HGC‐27, positive control): 46 ± 1.8%; inhibition at 50 µM ([2]; 72 hours, triplicate, read-out: % Cellular growth inhibition (at 50 µM) HGC-27 (supplement)): 46 ± 1.8%
4 | COc1ccc(N(C)c2nc(C)nc3ccccc23)cc1 [Verubulin, reference compound] | 5 ± 0.7 | 2 ± 0.3 | 3.2 | 2 ± 0.3 | 3 ± 0.4 | 3 ± 0.4 | 5 ± 0.7 |  | IC50 (tubulin [3]): 3200 ± 700 nM
5 | COc1ccc(/C=C\c2cc(OC)c(OC)c(OC)c2)cc1O [Combretastatin A-4, combretastatin A‐4] |  |  |  |  |  |  |  | no appreciable effect | 
